The record followed here is ChEMBL document CHEMBL5329193, “Targeting Mycobacterium tuberculosis iron-scavenging tools: a recent update on siderophores inhibitors” (RSC Med Chem, 2023).

In brackets after ≈: the same amount, converted by molar mass.

Experiment [1] concerns Mycobacterium tuberculosis variant bovis. As to the kind of experiment: Antimycobacterial activity against Mycobacterium bovis BCG assessed as reduction in microbial growth incubated for 15 days by resazurin based reduction assay. Format: functional. As to conditions: 360 h, time 15 day.
The test system is the same in experiment [2]. The experiment is described as follows: Antimycobacterial activity against Mycobacterium bovis BCG ATCC 35734 assessed as inhibition of bacterial growth incubated for 5 days by broth microdilution method. Format: functional, organism-based. As to conditions: BCG ATCC 35734, 120 h.
Experiment [3] has the same test system. The experiment is described as follows: Antitubercular activity against Mycobacterium bovis BCG assessed as bacterial growth inhibition incubated for 15 days by resazurin based reduction assay. Format: functional. As to conditions: 360 h, time 15 day.

For the compound `N#Cc1cc(OCCOc2ccccc2)cc(-c2ccc(C(=O)O)o2)c1`, the MIC99 in experiment [1] is 63 µM. In addition, in experiment [2], the IC50 came to 12.1 µM.
For `N#Cc1cc(-c2ccc(C(=O)O)o2)cc(C(F)(F)F)c1`, the MIC99 in experiment [3] was 125 µM (≈ 35.1 µg/mL).
